Reference: patent US9700596B2, “Locally released growth factors to mediate motor recovery after stroke” (The Regents of the University of California, priority 2011, dated 2017)
“Also recorded” adds a separate entry of the source. Blank lines part the entries; values can stand above or below the molecule they belong to.

How the values were obtained:
[1] = tested on: focal stroke in forelimb motor cortex; experiment: Grid-walking task (footfaults) after photothrombotic focal stroke; type: in vivo, mouse; conditions: for number of forelimb footfaults / function of impaired forelimb, grid-walking: i.p. twice daily from 5 d after stroke for 6 weeks, CX1837 0.33 or 1 mg/kg, CX1739 3 or 30 mg/kg, CFM2 50 μmol/kg, vs stroke plus vehicle
Method: (§1) Focal stroke was induced by photothrombosis in adult male C57BL/6 mice weighing 20-25 g as previously described (Clarkson et al. (2010) Nature 468: 305-309).
(§2) CX1837 (0.33 and 1 mg/kg) and CX1739 (3 and 30 mg/kg) were dissolved in 30% hydroxypropyl_β-cyclodextran (HPCD) (made 1:1 in 0.9% saline and distilled H2O) and administered intraperitoneally twice daily starting 5 d after stroke for a period of 6 weeks. The AMPAR antagonist CFM2 ([…]) (De Sarro et al. (1999) Eur. J. Pharmacol., 368: 149-159) was administered intraperitoneally twice daily for 6 weeks.
A hyaluronan/heparin sulfate proteoglycan biopolymer hydrogel (Extracel-HP, a.k.a., HYSTEM®-HP; BioTime,) was used to locally deliver TrkB-Fc (5 μg/ml) and human IgG-Fc (antibody and vehicle control) to the periinfarct cortex (Li et al. (2010) Nat. Neurosci. 13: 1496-1504). This hydrogel was chosen because it is composed of naturally occurring brain extracellular matrix constituents; remains liquid for a period after mixing so that it can be injected into the brain through a small, minimally invasive needle; and will gel within the stroke cavity, conforming to the boundaries of this cavity. We have shown that this hydrogel releases small and large proteins for up to 4 weeks from the infarct cavity after stroke. Five days after stroke, 10 μl of Extracel-HP (HYSTEM®-HP), impregnated with TrkB-Fc (5 μg/ml) or human IgG-Fc (vehicle), was injected directly into the stroke infarct cavity using a 30 gauge needle attached to a Hamilton syringe. Extracel-HP was prepared according to the manufacturer's instructions. […]
(§3) Animals were tested once on both the grid-walking and cylinder tasks, 1 week before surgery to establish baseline performance levels. For the reaching task, mice were trained for a period of 14 d and subsequently tested on day 15 to establish a baseline reading. […] Behaviors were scored by observers who were blind to the treatment group of the animals in the study as previously described (Clarkson et al. (2010) Nature 468: 305-309). […]

[2] = tested on: focal stroke in forelimb motor cortex; experiment: Single-pellet skilled-reaching task after stroke; type: in vivo, mouse; conditions: CFM2 50 μmol/kg i.p. bid from 5 d after stroke
Method: For loss-of-function studies assessing CFM2, the single-pellet skilled-reaching task was used (Conner et al. (2005) Neuron 46: 173-179). Before stroke, animals were trained for […] to successfully reach and retrieve 20 mg sugar pellets (Bio-Serv). A three lane Plexiglas reaching apparatus (30 cm deep, 10 cm wide, and 30 cm high for each lane) was constructed to allow simultaneous recording of three animals. Each lane consists of two 5 mm slots situated against the front-right and front-left walls of the chamber to force the mouse the reach for the pellets using either their right or left forepaws. A 5-mm-thick plastic shelf was mounted 15 mm from the floor at the front of the box.
During the training period, mice were fasted to 90% of their body weight and maintained at this level for the full 3 week training period. […]
All mice were fasted the night before testing. Pellets were presented one at a time and reaches were recorded with a Canon VIXIA HV30 video recorder. […] If an animal reached through the slot and obtained/grasped a food pellet and brought the pellet back through the slot, the reach was scored as a success. If an animal knocked the pellet away or dropped the pellet after grasping it, the reach was scored as a miss. The performance of each mouse was scored as follows: percentage success[…](number of successful retrievals/15)*100.

[3] = CFM2 50 μmol/kg i.p. bid; cited from earlier work
[4] = tested on: focal stroke in forelimb motor cortex; experiment: Spontaneous-forelimb (cylinder) task after photothrombotic focal stroke; type: in vivo, mouse; conditions: i.p. twice daily from 5 d after stroke for 6 weeks; CX1837 0.33 or 1 mg/kg, CX1739 3 or 30 mg/kg; vs stroke plus vehicle
Method: as §1, §2
A hyaluronan/heparin sulfate proteoglycan biopolymer hydrogel (Extracel-HP, a.k.a., HYSTEM®-HP; BioTime,) was used to locally deliver TrkB-Fc (5 μg/ml) and human IgG-Fc (antibody and vehicle control) to the periinfarct cortex (Li et al. (2010) Nat. Neurosci. 13: 1496-1504). […]
as §3

BDNF = BDNF ELISA of cortical tissue 7 d after stroke; type: in vivo, mouse; conditions: treatment from day 5, CX1837 1 mg/kg, CX1739 3 mg/kg, vs stroke plus vehicle
Method: (§4) Tissue was collected from around the stroke site from stroke plus vehicle, stroke plus CX1837 (1 mg/kg), and stroke plus CX1739 (3 mg/kg), and control groups 7 d after stroke. Cortical tissue was dissected in a 1 mm radius around the stroke infarct core, including the core itself, and flash frozen on dry ice.
Equal volumes of tissue were homogenized in […] of homogenization buffer [Complete Protease Inhibitor Tablet (Invitrogen), 1 mM phenylmethylsulfonylfluoride, 50 mM Tris-HCl, 5 mM EDTA, 10 mM EGTA, 1% Triton X-100] for ˜1 min. Tissue and homogenization buffer were incubated on ice for 30 min, followed by a 5 min spin at 14,000 rpm. The supernatant was collected and total protein concentrations were determined using the DC Protein Assay (Bio-Rad). BDNF was measured using the BDNF ELISA Emax Immunoassay System (Promega) as per the manufacturer's instructions. BDNF levels were determined relative to a standard curve constructed from measures of kit-supplied BDNF protein standards (0-500 pg of BDNF protein) that were assayed simultaneously with the experimental samples. BDNF levels are expressed as picograms of BDNF per 100 μg of sample protein.

TrkB = experiment: TrkB/p-Trk immunoblotting of cortical tissue 7 d after stroke; type: in vivo, mouse; conditions: CX1837 1 mg/kg, CX1739 3 mg/kg, vs stroke plus vehicle
Method: as §4
For immunoblotting experiments, protein (10 μg) was loaded onto a 12% SDS-polyacrylamide gel, subjected to electrophoresis, and transferred to a pure nitrocellulose membrane (GE Healthcare). The membrane was blocked in 10% nonfat milk and probed with polyclonal antibodies specific for anti-TrkB (1:1000; Santa Cruz Biotechnology) and anti-p-Trk (1:5000; Santa Cruz Biotechnology). The blots were incubated with peroxidase-labeled anti-rabbit IgG (1:2000; Vector Laboratories) and immunoreactive proteins were visualized using enhanced chemiluminescence (GE Healthcare). β-Actin was used as a loading control (1:5000; Abcam). Optical density (OD) was determined using the NIH ImageJ software. Pixel intensities were converted to OD using the calibration curve of the software, and background-subtracted values were expressed as OD/[…] total protein.

[5] = tested on: hilar EPSPs (dentate gyrus of the hippocampus)
Method: Male Long-Evans rats (250-350 g) were anesthetized by pentobarbital (60 mg/kg, i.p.) and maintained under anesthesia by pentobarbital infusion (2-4 mg·kg-^1·h^−1). Under anesthesia, animals were placed in a stereotaxic frame and small holes were drilled into the skull of the left hemisphere to allow the positioning of a stimulating electrode (−7.8 to −8.1 AP; 4.2 to 4.4 ML) and a recording electrode (−3.0 to −3.3 AP; 1.6 to 2.2 ML). A monopolar stainless-steel stimulating electrode (175 μm, insulated with Formvar) was lowered into the perforant path together with a platinum/iridium recording electrode (75 μm) into the hilus of the dentate gyms of the hippocampus. The current used to elicit an evoked potential was adjusted to produce a response size 50-60% of the maximal spike-free amplitude. Evoked hilar EPSPs were recorded in response to single-pulse stimulation delivered at a frequency of one pulse per 20 s.
Data acquisition and analysis was performed using commercially available software (NAC and NACSHOW).

Molecule: COc1cc2c(cc1OC)C(c1ccc(N)cc1)=NNC(=O)C2 [CFM2]
- number of forelimb footfaults / function of impaired forelimb, grid-walking [1]: significant impairment in the normal gain of motor function; also recorded: significant increase in the number of footfaults
- successful pellet retrieval with impaired right forelimb [2]: significant impairment in the ability to retrieve pellets successfully out to 2 weeks after stroke; also recorded: decrease in the number of pellets successfully retrieved
- general behavioral side effects (reduced motor activity, impaired grooming, weight loss) [3]: did not produce general behavioral side effects

- crossing of the blood-brain barrier when given systemically ([5]; rat, in vivo, ip): cross the blood-brain barrier
Molecule: CN(C(=O)c1ccc2nonc2c1)C1CCOCC1 [CX1739]
- number of forelimb footfaults / function of impaired forelimb, grid-walking [1]: small decrease in the number of footfaults; also recorded: small yet non-significant decrease in the number of footfaults
- forelimb asymmetry (left/right ratio), cylinder task [4]: small increase in the use of the right-impaired forelimb; also recorded: did not result in a decrease in the left/ratio
- BDNF levels in periinfarct cortex (BDNF): did not change the level of BDNF expression
- TrkB phosphorylation in periinfarct cortex (TrkB): did not change the level of TrkB phosphorylation
- excitability ceiling of the EPSP amplitude effect (dose) ([5]; i.p., anesthetized rats): 10 mg/kg

B1: brain derived neurotrophic factor (protein)
chain: HSDPARRGELSVCDSISEWVTAADKKTAVDMSGGTVTVLEKVPVSKGQLKQYFYETKCNPMGYTKEGCRGIDKRHWNSQCRTTQSYVRALTMDSKKRIGWRFIRIDTSCVCTLTIKRGR
notes: growth factor, delivered through HYSTEM-C from 7 days after stroke
- forelimb footfaults / functional recovery with hydrogel-delivered BDNF ([1]; injected 7 days after stroke, 4 weeks after injection, 5 weeks after stroke): significant improvements in functional recovery
